Results from patent US20250051403A1, “ANTIMICROBIAL PEPTIDES, VARIANTS AND CHEMICAL ANALOGUES THEREOF AND THEIR USES” (priority 2021, published 2025).
Converted amounts (≈) assume the structure as drawn. Read-outs that look alike come from different tables or passages of the source. Positions of bridges follow the written chain, without caps; N, C: chain ends. Residues, ends and D or L forms follow the SMILES beside them.

How the values were obtained:
[1] = system: P. aeruginosa Fluoroquinolone resistant (CIP 107398); experiment: MIC, broth microdilution; assay type: cell-based, Pseudomonas aeruginosa
[2] = system: S. aureus (Pasteur); experiment: MIC, broth microdilution; assay type: cell-based, Staphylococcus aureus
[3] = system: B. subtilis nisin resistant (DSMZ 347); conditions: Table IV
[4] = system: Pseudomonas sp.; experiment: MIC, broth microdilution; assay type: cell-based; conditions: Table III; MHB saline 565 mM NaCl
Protocol: (§1) To standardize the bacterial cell suspension for assay of antibacterial activity, some colonies of each strain grown overnight on MHA (Mueller Hinton Agar. ROTH) plates were suspended in MHB (Mueller Hinton Broth. ROTH) or MHB saline (Mueller Hinton Broth containing 565 mM NaCl) and incubated at 37° C. or 30° C. until visible turbid. This log-phase inoculum was diluted 1:100 in the same culture media. Using sterile 96-well microtiter plates (CELLSTAR. Greiner bio-one), serial 2-fold dilutions (40 to 0.78 μM) of each peptide were prepared in cation-adjusted acetic acid 0.02% with 0.4% BSA (Bovin Serum Albumin fraction V. Boehringer) at a volume of 10 μL/well. Each well was inoculated with 100 μL of the standardized bacterial inoculum, corresponding to a final test concentration of about 10^5 CFU/mL. Antimicrobial activities were expressed as the MIC (Minimal Inhibitory Concentration), the lowest concentration of peptide at which 100% inhibition of microbial growth was observed after 24 h of incubation at 37° C. or 30° C. by measuring OD600 in a microtiter plate reader. The minimal bactericidal concentration (MBC) was defined as the peptide concentration where no colony growth was observed.

[5] = system: Acinetobacter baumannii (CIP 103572); experiment: MIC, broth microdilution; assay type: cell-based
[6] = system: Pseudomonas sp biofilm; experiment: Biofilm formation assay (crystal violet); assay type: cell-based; conditions: 20 μM peptide, 2 h at 37° C. on 48 h biofilm; untreated culture 0.95
Protocol: Overnight cultures of V. diabolicus and Pseudomonas sp (37° C., 200 rpm) were diluted to an OD600 of 0.1 in MHB medium and 200 μL aliquots of the suspensions were introduced into the wells of a 96 microtiter plates (Nunc). Plates were then incubated at 37° C. without shaking for 48 h. After removal of the standing culture, the wells were washed with MHB medium and Michelicin, Arenicin and Alvinellacin were added, respectively, at a final concentration of 20 μM in MHB. The treatment was performed during 2 h at 37° C. Wells were then washed three times with distilled water and the remaining attached bacteria were fixed with 99% methanol per well for 20 min at room temperature. Afterward, methanol was removed and plates were air-dried. Biofilms were stained with 300 μL of 1% crystal violet (v/v) for 20 min at room temperature, before the residual stain was removed. After washing, the crystal violet bound to the adherent cells was solubilized with 300 μL of 100% ethanol and absorbance was measured at 595 nm (TECAN, sunrise). Sterile medium served as negative control. It is clear on the view of FIG. 3 that Michelicin has a greater antimicrobial activity on a biofilm of Pseudomonoas sp strains than Alvinellacin. For Pseudomonas sp, OD595 is equal to 0.6 when treated with Michelicin, equal to 0.55 when treated with Arenicin and equal to 0.65 when treated with Alvinellacin. […]

[7] = system: E. coli (D31 Pasteur); experiment: MIC, broth microdilution; assay type: cell-based, Escherichia coli; conditions: Table IV
Protocol: as §1
(§2) The same experiments as described in 1) were performed. For the evaluation of antimicrobial activity against some other strains, a resazurin microtiter assay was used as explained hereinafter.

[8] = system: Bacillus megaterium
[9] = system: Klebsiella pneumoniae carbapenem-resistant (DSMZ 26371); experiment: MIC, broth microdilution; assay type: cell-based
[10] = system: V. alginolyticus (MPV19 IFREMER); experiment: MIC, broth microdilution; assay type: cell-based, Vibrio alginolyticus
[11] = system: Burkholderia cepacia (DSM 7288); experiment: MIC, broth microdilution; assay type: cell-based
[12] = system: Helicobacter pylori (ATCC 43504); experiment: MIC, broth microdilution; assay type: cell-based
[13] = system: Serratia marcescens; experiment: MIC, broth microdilution; assay type: cell-based
[14] = system: M. abscessus R (CIP104537^TR); conditions: Table IV; REMA, 90% growth inhibition
[15] = system: Enterococcus faecalis Vancomycin-resistant (DSMZ 13591); experiment: MIC, broth microdilution; assay type: cell-based
[16] = system: Vibrio alginolyticus
[17] = system: V. diabolicus (HE 800)
[18] = system: Mycobacterium tuberculosis mc^26230
[19] = system: Escherichia coli (ATCC 8739); experiment: MIC, broth microdilution; assay type: cell-based
[20] = system: V. diabolicus; experiment: Scanning electron microscopy of treated bacteria; assay type: cell-based, Vibrio diabolicus; conditions: FIG. 9
Description: (§3) The arrows show pore formed through the membrane. For V. diabolicus, despite the results of FIG. 3, is seems that Michelicin has a pore-forming activity on these bacteria.

[21] = system: V. alginolyticus; experiment: Scanning electron microscopy of treated bacteria; assay type: cell-based, Vibrio alginolyticus; conditions: FIG. 9
Description: as §3

[22] = system: S. aureus methicillin resistant USA300 (ATCC BAA-1717); experiment: MIC, broth microdilution; assay type: cell-based, Staphylococcus aureus
[23] = system: A. baumannii antibiotic resistant (CIP 110431)
[24] = system: Staphylococcus aureus (ATCC 6538P); experiment: MIC, broth microdilution; assay type: cell-based
[25] = system: Pseudomonas aeruginosa (ATCC 9027); experiment: MIC, broth microdilution; assay type: cell-based; conditions: Table IV
[26] = system: E. coli carbapenem- resistant (DSMZ 22314)
[27] = system: Bacillus subtilis (ATCC 6633); experiment: MIC, broth microdilution; assay type: cell-based; conditions: Table IV
Protocol: as §1, §2

[28] = system: Salmonella enterica (CIP 80.39); experiment: MIC, broth microdilution; assay type: cell-based; conditions: Table IV
Protocol: as §1, §2

[29] = system: M. bovis BCG Pasteur; conditions: Table IV; REMA, 90% growth inhibition
[30] = Cytotoxicity, resazurin cell viability; assay type: cell-based, human; conditions: human
Protocol: The toxicity of Michelicin on human cells was tested as previously described (Borie et al., 2017; Oyama et al., 2017). Briefly, human cells were cultured in Dulbecco's modified essential medium (DMEM) supplemented with 10% fetal calf serum (FCS), 1% L-glutamine and 1% antibiotics (all from Invitrogen). Cells were routinely grown in onto 25 cm^2 flasks maintained in a 5% CO2 incubator at 37° C. For toxicity assay, cells grown on 25 cm^2 flasks were detached using trypsin-EDTA solution (Thermofisher) and seeded into 96-well cell culture plates (Greiner Bio-one) at approximately 10^4 cells per well (counted using Mallasez's chamber). The cells were grown at 37° C. in a 5% CO2 incubator until they reached confluence (approximately 48-72 h of seeding). Wells were then aspirated and increasing concentrations of AMP were added to the cells and incubated for a further 48 h at 37° C. in a 5% CO2 incubator. The wells were then emptied, and cell viability was evaluated using resazurin based in vitro toxicity assay kit (Sigma-Aldrich) following manufacturer's instructions. Briefly, resazurin stock solution was diluted 1:100 in sterile PBS containing calcium and magnesium (PBS++, pH 7.4) and emptied wells were filled with 100 μL of the resazurin diluted solution. After 4 h incubation at 37° C. with the peptide treated cells, fluorescence intensity was measured using microplate reader (SynerMix, Bioteck) (excitation wavelength of 530 nm/emission wavelength of 590 nm). The fluorescence values were normalized by the controls and expressed as percentage of cell viability. The IC50 values of tested AMP on cell viability (i.e. the concentration of peptides causing a reduction of 50% of the cell viability) were calculated using GraphPad® Prism 7 software. Two cell lines were tested: Human Bronchial Epithelial Cell Line (BEAS; ATCC CRL-9609) and Human umbilical vein endothelial cell (HUVEC).

[31] = system: M. smegmatis mc^2155
[32] = system: Jurkat human cells; conditions: cited from earlier work

SMILES: CSCC[C@@H]1NC(=O)[C@@H]2CSSC[C@H](NC(=O)[C@H](CCCNC(=N)N)NC(=O)[C@H]([C@@H](C)O)NC(=O)[C@H](Cc3ccc(O)cc3)NC(=O)[C@@H](NC(=O)CNC(=O)[C@@H](N)CCCNC(=N)N)CSSC[C@@H](C(=O)N[C@H](C(=O)O)[C@@H](C)O)NC(=O)[C@H](C(C)C)NC(=O)[C@H](CCCNC(=N)N)NC1=O)C(=O)N[C@@H](Cc1c[nH]c3ccccc13)C(=O)N[C@@H](CCCCN)C(=O)N[C@@H](C(C)C)C(=O)NCC(=O)N[C@@H](CCCNC(=N)N)C(=O)N[C@@H](CC(N)=O)C(=O)NCC(=O)N[C@@H](CCCNC(=N)N)C(=O)N[C@@H](C(C)C)C(=O)N2 [Alvinellacin] (H-RGCYTRCWKVGRNGRVCMRVCT-OH; disulfide 3-21, 7-17; N-terminus and C-terminus assumed)
- MIC ([1]; Table IV): 1.25 to 2.5 µM
- MIC ([2]; Table IV): 1.25 to 2.5 µM
- MIC [3]: 0.625 to 1.25 µM
- MIC with 565 mM NaCl [4]: 5 to 10 µM
- MIC ([5]; Table IV): 1.25 to 2.5 µM
- Biofilm OD595 after treatment [6]: 0.65
- MIC [7]: 0.31 to 0.62 µM
- MIC [8]: 0.15 to 0.31 µM
- MIC with 565 mM NaCl [8]: 2.5 to 5 µM
- MIC ([9]; Table IV): 1.25 to 2.5 µM
- MIC ([10]; Table III, MHB): 0.07 to 0.15 µM
- MIC with 565 mM NaCl ([10]; Table III, MHB saline 565 mM NaCl): 0.62 to 1.25 µM
- MIC ([10]; Table IV): 0.07 to 0.15 µM
- MIC ([11]; Table IV): 10 µM (≈ 26 µg/mL)
- MIC ([12]; Table IV): 1.25 to 2.5 µM
- MIC ([13]; Table IV): >50 µM
- MIC [14]: 17.0 to 17.8 µM
- MIC ([15]; Table IV): 20 to 40 µM
- MIC [16]: 0.07 to 0.15 µM
- MIC with 565 mM NaCl [16]: 0.07 to 0.15 µM
- MIC ([16]; 24 h): 0.07 to 0.15 µM
- MIC [17]: 2.5 to 5 µM
- MIC with 565 mM NaCl [17]: 2.5 to 5 µM
- MIC [18]: 16.0 to 21.5 µM
- MIC ([19]; Table IV): 1.25 to 2.5 µM
- Membrane damage seen by scanning electron microscopy [20]: able to damage
- Membrane damage seen by scanning electron microscopy [21]: able to damage
- MIC ([22]; Table IV): 2.5 to 5 µM
- MIC ([23]; Table IV): 0.625 to 1.25 µM
- MIC ([24]; Table IV): 2.5 to 5 µM
- MIC [25]: 1.25 to 2.5 µM
- MIC ([26]; Table IV): 0.625 to 1.25 µM
- MIC [27]: 0.625 to 1.25 µM
- MIC [28]: 0.625 to 1.25 µM
- MIC [29]: 12.0 to 21.4 µM

SMILES: CC(C)C[C@@H]1NC(=O)[C@H](C(C)C)NC(=O)CNC(=O)[C@H](CCCNC(=N)N)NC(=O)[C@H](C(C)C)NC(=O)[C@H](CCCNC(=N)N)NC(=O)[C@H](C(C)C)NC(=O)[C@H](Cc2ccc(O)cc2)NC(=O)[C@H](C)NC(=O)[C@H](Cc2ccc(O)cc2)NC(=O)[C@H](C(C)C)NC(=O)[C@@H](NC(=O)[C@H](Cc2c[nH]c3ccccc23)NC(=O)[C@@H](N)CCCNC(=N)N)CSSC[C@@H](C(=O)N[C@@H](Cc2c[nH]c3ccccc23)C(=O)O)NC(=O)[C@H](CCCNC(=N)N)NC(=O)[C@H](CCCNC(=N)N)NC(=O)[C@H](Cc2ccc(O)cc2)NC(=O)[C@H](CCCNC(=N)N)NC(=O)[C@H](C(C)C)NC1=O [Arenicin] (H-RWCVYAYVRVRGVLVRYRRCW-OH; disulfide 3-20)
- MIC ([1]; CIP 107398): 1.25 to 2.5 µM
- MIC ([2]; Pasteur): 1.25 to 2.5 µM
- viability at 48 h, 80 µM ([30]; BEAS human bronchial epithelial cells (ATCC CRL-9609)): 95%
- viability at 48 h, 80 µM ([30]; HUVEC (human umbilical vein endothelial cells)): 40%
- MIC ([5]; CIP 103572): 1.25 to 2.5 µM
- Biofilm OD595 after treatment [6]: 0.55
- MIC [8]: 0.07 to 0.15 µM
- MIC with 565 mM NaCl [8]: 20 to 40 µM
- MIC ([9]; DSMZ 26371): 1.25 to 2.5 µM
- MIC [10]: 0.15 to 0.31 µM
- MIC with 565 mM NaCl [10]: 2.5 to 5 µM
- MIC ([11]; DSM 7288): 25 µM (≈ 69 µg/mL)
- MIC ([12]; ATCC 43504): 1.25 to 2.5 µM
- MIC [13]: >50 µM
- MIC ([15]; DSMZ 13591): 1.25 to 2.5 µM
- MIC [31]: 0.7 to 10 µM
- MIC [16]: 0.15 to 0.31 µM
- MIC with 565 mM NaCl [16]: 0.07 to 0.15 µM
- MIC ([16]; 24 h): 0.15 to 0.31 µM
- Cytotoxicity towards Jurkat human cells [32]: cytotoxic
- MIC [17]: 1.25 to 2.5 µM
- MIC with 565 mM NaCl [17]: 10 to 20 µM
- MIC [18]: 7.1 to 12.2 µM
- MIC ([19]; ATCC 8739): 2.5 to 5 µM
- MIC ([22]; USA300): 5 to 10 µM
- MIC ([23]; CIP 110431): 20 to 40 µM
- MIC ([24]; ATCC 6538): 1.25 to 2.5 µM
- MIC ([26]; DSMZ 22314): 2.5 to 5 µM
